Laboratory results taken from PubChem BioAssay AID1963845 (Molecular Pharmacology Branch, DTP, NCI, 2024).

Tested on: 429239-143-T-J1-PDC complex spheroid viability
Test: Anticancer human tumor 429239-143-T-J1-PDC patient-derived small cell lung carcinoma cell line growth inhibition [POLQ]
Conditions: for IC50: curve of first compound; for viability, T/C: stronger effect = lower value
Procedure, shortened: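 Growth inhibition in 3D: complex spheroids (tumor PDC, HUVEC, MSC) treated with POLQ inhibitor combinations; where Cmax unknown, highest tested concentration 10 microM, except SN-38 at 1 microM.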

[1] = second compound 0.0316 µM, first compound 0.0316 µM
[2] = second compound 0.0316 µM, first compound 0.1 µM
[3] = second compound 0.0316 µM, first compound 0.316 µM
[4] = second compound 0.0316 µM, first compound 1 µM
[5] = second compound 0.0316 µM, first compound 3.16 µM
[6] = second compound 0.0316 µM, first compound 10 µM
[7] = second compound 0.1 µM, first compound 0.0316 µM
[8] = second compound 0.1 µM, first compound 0.1 µM
[9] = second compound 0.1 µM, first compound 0.316 µM
[10] = second compound 0.1 µM, first compound 1 µM
[11] = second compound 0.1 µM, first compound 3.16 µM
[12] = second compound 0.1 µM, first compound 10 µM
[13] = second compound 0.316 µM, first compound 0.0316 µM
[14] = second compound 0.316 µM, first compound 0.1 µM
[15] = second compound 0.316 µM, first compound 0.316 µM
[16] = second compound 0.316 µM, first compound 1 µM
[17] = second compound 0.316 µM, first compound 3.16 µM
[18] = second compound 0.316 µM, first compound 10 µM
[19] = second compound 1 µM, first compound 0.0316 µM
[20] = second compound 1 µM, first compound 0.1 µM
[21] = second compound 1 µM, first compound 0.316 µM
[22] = second compound 1 µM, first compound 1 µM
[23] = second compound 1 µM, first compound 3.16 µM
[24] = second compound 1 µM, first compound 10 µM
[25] = second compound 3.16 µM, first compound 0.0316 µM
[26] = second compound 3.16 µM, first compound 0.1 µM
[27] = second compound 3.16 µM, first compound 0.316 µM
[28] = second compound 3.16 µM, first compound 1 µM
[29] = second compound 3.16 µM, first compound 3.16 µM
[30] = second compound 3.16 µM, first compound 10 µM
[31] = second compound 10 µM, first compound 0.0316 µM
[32] = second compound 10 µM, first compound 0.1 µM
[33] = second compound 10 µM, first compound 0.316 µM
[34] = second compound 10 µM, first compound 1 µM
[35] = second compound 10 µM, first compound 3.16 µM
[36] = second compound 10 µM, first compound 10 µM
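Further: luminescence signal used as surrogate measure of viable cells; spheroids exposed to compounds for seven days before readout.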
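Wherever viability, T/C is given: 100% = DMSO vehicle control viability as luminescence relative to vehicle.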

`C#Cc1c(F)ccc2cc(O)cc(-c3ncc4c(N5CC6CCC(C5)N6)nc(OCC56CCCN5CC(F)C6)nc4c3F)c12` (stereo unspecified) + Cc1cccc(N(C)C(=O)C2C(O)CCN2c2nc(C)cc(C(F)(F)F)c2C#N)c1 was tested, and the IC50 (second compound 0.0316 µM) was > 10 µM, the IC50 (second compound 0.1 µM) was > 10 µM and the IC50 (second compound 0.316 µM) was > 10 µM. The IC50 (second compound 1 µM) was > 10 µM, the IC50 (second compound 3.16 µM) was > 10 µM and the IC50 (second compound 10 µM) was > 10 µM. The viability, T/C [1] was 91%, the viability, T/C [2] was 92.4% and the viability, T/C [3] was 97.1%. It also gave a viability, T/C [4] of 98.9%, a viability, T/C [5] of 98.9% and a viability, T/C [6] of 100%. The viability, T/C [7] was 117%, the viability, T/C [8] was 110% and the viability, T/C [9] was 89.7%. The viability, T/C [10] was 101%, the viability, T/C [11] was 91.1% and the viability, T/C [12] was 103%. For the same molecule, the viability, T/C [13] was 99.6%, the viability, T/C [14] was 100% and the viability, T/C [15] was 98.5%. It also gave a viability, T/C [16] of 93.8%, a viability, T/C [17] of 89.2% and a viability, T/C [18] of 93.5%. The viability, T/C [19] was 101%, the viability, T/C [20] was 108% and the viability, T/C [21] was 105%. The viability, T/C [22] was 92.5%, the viability, T/C [23] was 89.9% and the viability, T/C [24] was 92.5%. It also gave a viability, T/C [25] of 90.2%, a viability, T/C [26] of 88.4% and a viability, T/C [27] of 106%. The viability, T/C [28] was 86.3%, the viability, T/C [29] was 95.4% and the viability, T/C [30] was 92%. The viability, T/C [31] was 100%, the viability, T/C [32] was 78.3% and the viability, T/C [33] was 101%. The viability, T/C [34] was 86%, the viability, T/C [35] was 103% and the viability, T/C [36] was 100%.

`CC(=O)O[C@H]1C(=O)[C@@]2(C)[C@H]([C@H](OC(=O)c3ccccc3)[C@]3(O)C[C@H](OC(=O)[C@H](O)[C@@H](NC(=O)c4ccccc4)c4ccccc4)C(C)=C1C3(C)C)[C@]1(OC(C)=O)CO[C@@H]1C[C@@H]2O` + Cc1cccc(N(C)C(=O)C2C(O)CCN2c2nc(C)cc(C(F)(F)F)c2C#N)c1 gave an IC50 (second compound 0.0316 µM) of 0.0134 µM, an IC50 (second compound 0.1 µM) of 0.0129 µM and an IC50 (second compound 0.316 µM) of 0.0116 µM. The IC50 (second compound 1 µM) was 0.0142 µM, the IC50 (second compound 3.16 µM) was 0.0132 µM and the IC50 (second compound 10 µM) was 0.0125 µM. It also gave a viability, T/C (second compound 0.0316 µM, first compound 0.00949 µM) of 63.2%, a viability, T/C (second compound 0.0316 µM, first compound 0.03 µM) of 14.9% and a viability, T/C (second compound 0.0316 µM, first compound 0.0949 µM) of 11.6%. The viability, T/C (second compound 0.0316 µM, first compound 0.3 µM) was 19.4%, the viability, T/C (second compound 0.0316 µM, first compound 0.949 µM) was 24.7% and the viability, T/C (second compound 0.0316 µM, first compound 3 µM) was 27.8%. It also gave a viability, T/C (second compound 0.1 µM, first compound 0.00949 µM) of 60.9%, a viability, T/C (second compound 0.1 µM, first compound 0.03 µM) of 15.6% and a viability, T/C (second compound 0.1 µM, first compound 0.0949 µM) of 18.6%. For the same molecule, the viability, T/C (second compound 0.1 µM, first compound 0.3 µM) was 18.5%, the viability, T/C (second compound 0.1 µM, first compound 0.949 µM) was 23% and the viability, T/C (second compound 0.1 µM, first compound 3 µM) was 24.6%. It also gave a viability, T/C (second compound 0.316 µM, first compound 0.00949 µM) of 56.6%, a viability, T/C (second compound 0.316 µM, first compound 0.03 µM) of 17.8% and a viability, T/C (second compound 0.316 µM, first compound 0.0949 µM) of 12.7%. For the same molecule, the viability, T/C (second compound 0.316 µM, first compound 0.3 µM) was 16.9%, the viability, T/C (second compound 0.316 µM, first compound 0.949 µM) was 18.8% and the viability, T/C (second compound 0.316 µM, first compound 3 µM) was 23.9%. The viability, T/C (second compound 1 µM, first compound 0.00949 µM) was 66.5%, the viability, T/C (second compound 1 µM, first compound 0.03 µM) was 14.6% and the viability, T/C (second compound 1 µM, first compound 0.0949 µM) was 17.8%. The viability, T/C (second compound 1 µM, first compound 0.3 µM) was 17.1%, the viability, T/C (second compound 1 µM, first compound 0.949 µM) was 22.7% and the viability, T/C (second compound 1 µM, first compound 3 µM) was 24.7%. For the same molecule, the viability, T/C (second compound 3.16 µM, first compound 0.00949 µM) was 62.5%, the viability, T/C (second compound 3.16 µM, first compound 0.03 µM) was 17% and the viability, T/C (second compound 3.16 µM, first compound 0.0949 µM) was 14.6%. It also gave a viability, T/C (second compound 3.16 µM, first compound 0.3 µM) of 17.2%, a viability, T/C (second compound 3.16 µM, first compound 0.949 µM) of 21.7% and a viability, T/C (second compound 3.16 µM, first compound 3 µM) of 25.1%. The viability, T/C (second compound 10 µM, first compound 0.00949 µM) was 61.2%, the viability, T/C (second compound 10 µM, first compound 0.03 µM) was 12.5% and the viability, T/C (second compound 10 µM, first compound 0.0949 µM) was 17.8%. It also gave a viability, T/C (second compound 10 µM, first compound 0.3 µM) of 14.6%, a viability, T/C (second compound 10 µM, first compound 0.949 µM) of 18% and a viability, T/C (second compound 10 µM, first compound 3 µM) of 16%.

`O=c1[nH]cc(F)c(=O)[nH]1` + Nc1ccc(C#CCN(C(=O)Cc2ncc(C(F)(F)F)cc2C(F)(F)F)c2ccc(F)cc2)nn1 gave an IC50 (second compound 0.0316 µM) of 3.24 µM, an IC50 (second compound 0.1 µM) of 3.29 µM and an IC50 (second compound 0.316 µM) of 4.05 µM. It also gave an IC50 (second compound 1 µM) of 4.13 µM, an IC50 (second compound 3.16 µM) of 2.53 µM and an IC50 (second compound 10 µM) of 3.17 µM. The viability, T/C [1] was 98.3%, the viability, T/C [2] was 105% and the viability, T/C [3] was 96.6%. It also gave a viability, T/C [4] of 80.8%, a viability, T/C [5] of 50.7% and a viability, T/C [6] of 31.6%. The viability, T/C [7] was 107%, the viability, T/C [8] was 105% and the viability, T/C [9] was 104%. For the same molecule, the viability, T/C [10] was 81%, the viability, T/C [11] was 51.5% and the viability, T/C [12] was 35.2%. It also gave a viability, T/C [13] of 100%, a viability, T/C [14] of 110% and a viability, T/C [15] of 104%. The viability, T/C [16] was 82.8%, the viability, T/C [17] was 56.7% and the viability, T/C [18] was 30.7%. It also gave a viability, T/C [19] of 115%, a viability, T/C [20] of 99.7% and a viability, T/C [21] of 105%. For the same molecule, the viability, T/C [22] was 77.9%, the viability, T/C [23] was 56.3% and the viability, T/C [24] was 31.5%. For the same molecule, the viability, T/C [25] was 98.1%, the viability, T/C [26] was 105% and the viability, T/C [27] was 102%. For the same molecule, the viability, T/C [28] was 80.2%, the viability, T/C [29] was 43.3% and the viability, T/C [30] was 32.1%. The viability, T/C [31] was 104%, the viability, T/C [32] was 97.6% and the viability, T/C [33] was 106%. For the same molecule, the viability, T/C [34] was 83.1%, the viability, T/C [35] was 51.1% and the viability, T/C [36] was 34.1%.
